Measurements reported in patent US6417212B1, “Modulators of peroxisome proliferator activated receptors” (Eli Lilly & Company, priority 1999, dated 2002).

Columns and labels:
huPPARα = assay: Cotransfection assay in CV-1 cells, huPPARα (GAL4 chimeric system); assay type: cell-based, human; conditions: luciferase reporter, relative to PPARα agonist reference molecule
Description: (§1) DNA-dependent binding (ABCD binding) was carried out using SPA technology with PPAR receptors. Tritium-labeled PPARγ and PPARα agonists were used as radioligands for generating displacement curves and IC50 values with compounds of the invention. Cotransfection assays were carried out in CV-1 cells. The reporter plasmid contained an acylCoA oxidase (AOX) PPRE and TK promoter upstream of the luciferase reporter cDNA. Appropriate PPARs and RXRα were constitutively expressed using plasmids containing the CMV promoter. For PPARα and PPARβ, interference by endogenous PPARγ in CV-1 cells was an issue. In order to eliminate such interference, a GAL4 chimeric system was used in which the DNA binding domain of the transfected PPAR was replaced by that of GAL4, and the GAL4 response element was utilized in place of the AOX PPRE. Cotransfection efficacy was determined relative to PPARα agonist and […] reference molecules. Efficacies were determined by computer fit to a concentration-response curve, or in some cases at a single high concentration of agonist (10 μM). For binding or cotransfection studies with receptors other than PPARs, similar assays were carried out using appropriate ligands, receptors, reporter constructs, etc., for that particular receptor.
(§2) These studies were carried out to evaluate the ability of compounds of the invention to bind to and/or activate various nuclear transcription factors, particularly huPPARα (“hu” indicates “human”) and huPPARγ. These studies provide in vitro data concerning efficacy and selectivity of compounds of the invention. Furthermore, binding and cotransfection data for compounds of the invention were compared with corresponding data for marketed compounds that act on either huPPARα or huPPARγ.

Hu apoAI transgenic mice = assay: Evaluation of triglyceride and cholesterol levels in Hu apoAI transgenic mice; assay type: in vivo; conditions: Mus musculus, 168 h, 30 mg/kg daily oral gavage for 7 days; for change in vivo at 30 mg/kg: pooled sera, read-out: % HDLc Increase (serum, FPLC area under the curve, over vehicle); for inhibition in vivo at 30 mg/kg: serum 3 hours after dosing on day 7, read-out: % Triglyceride Decrease (serum, over mice receiving vehicle)
Description: After an acclimation period of 2 weeks, animals were individually identified by ear notches, weighed, and assigned to groups based on body weight. Beginning the following morning, mice were dosed daily by oral gavage for 7 days using a 20 gauge, 11⁄2 curved disposable feeding needle (Popper & Sons). […] Prior to termination on day 7, mice were weighed and dosed. Three hours after dosing, animals were anesthetized by inhalation of isoflurane (2-4%; Abbott Laboratories, Chicago, Ill.) and blood obtained via cardiac puncture (0.7-1.0 ml). Whole blood was transferred to serum separator tubes (Vacutainer SST), chilled on ice, and permitted to clot. Serum was obtained after centrifugation at 4° C. and frozen until analysis for triglycerides, total cholesterol, compound levels, and serum lipoprotein profile by fast protein liquid chromatography (FPLC) coupled to an inline detection system. After sacrifice by cervical dislocation, the liver, heart and epididymal fat pads were excised and weighed. […] The percentage decrease in triglyceride serum levels in mice receiving a compound of the invention over mice receiving vehicle are reported in Table 2. […] The absorbance of the dye produced is linearly related to the analyte in the sample. The assays were further modified in our laboratory for use in a 96 well format. […] An additional aliquot of sample, pipetted to a third well and diluted in 200 μl water, provided a blank for each specimen. […] All samples from an experiment were assayed at the same time to minimize inter-assay variability. Serum lipoproteins were separated and cholesterol quantitated with an in-line detection system. […] The change in voltage corresponding to change in cholesterol concentration was plotted vs time and the area under the curve corresponding to the elution of VLDL, LDL and HDL was calculated using Perkin Elmer Turbochrome software.

huPPARγ = target: T1, huPPARγ (Homo sapiens, UniProt P37231); assay: DNA-dependent binding (ABCD binding), SPA, huPPARγ; conditions: displacement of tritium-labeled PPARγ agonist radioligand
T1 sequence (P37231 1-505): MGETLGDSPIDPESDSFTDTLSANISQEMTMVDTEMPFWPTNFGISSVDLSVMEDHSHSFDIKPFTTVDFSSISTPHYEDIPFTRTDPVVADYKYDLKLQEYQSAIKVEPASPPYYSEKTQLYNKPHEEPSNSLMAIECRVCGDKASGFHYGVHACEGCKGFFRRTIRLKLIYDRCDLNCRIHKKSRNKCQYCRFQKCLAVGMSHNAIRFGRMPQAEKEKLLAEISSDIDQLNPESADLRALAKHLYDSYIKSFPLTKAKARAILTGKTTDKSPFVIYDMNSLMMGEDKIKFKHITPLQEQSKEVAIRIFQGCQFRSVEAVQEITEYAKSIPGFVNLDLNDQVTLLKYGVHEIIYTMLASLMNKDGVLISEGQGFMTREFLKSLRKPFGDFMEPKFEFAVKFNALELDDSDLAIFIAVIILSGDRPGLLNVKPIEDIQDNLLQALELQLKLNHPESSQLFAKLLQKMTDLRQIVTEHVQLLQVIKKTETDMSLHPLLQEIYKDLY
T1 sequence (P19793 1-462 partner): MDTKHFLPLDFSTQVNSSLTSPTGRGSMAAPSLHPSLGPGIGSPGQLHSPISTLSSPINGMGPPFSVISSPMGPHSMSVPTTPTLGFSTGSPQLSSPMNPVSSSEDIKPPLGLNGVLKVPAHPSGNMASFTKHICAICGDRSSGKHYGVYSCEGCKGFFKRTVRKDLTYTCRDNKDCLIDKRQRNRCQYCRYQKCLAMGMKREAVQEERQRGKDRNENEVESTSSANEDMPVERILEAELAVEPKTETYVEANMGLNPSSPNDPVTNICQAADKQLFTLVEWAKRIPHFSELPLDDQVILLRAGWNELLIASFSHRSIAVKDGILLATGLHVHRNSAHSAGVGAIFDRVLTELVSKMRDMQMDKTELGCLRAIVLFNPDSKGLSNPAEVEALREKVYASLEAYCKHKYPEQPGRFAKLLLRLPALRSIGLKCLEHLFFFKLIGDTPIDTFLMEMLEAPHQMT
Description: as §1, with “For PPARα and PPARβ, interference by endogenous PPARγ in CV-1 cells was an issue.” left out
as §2

| IC50 (huPPARγ) [nM] | Structure (SMILES) | huPPARα CTF Efficacy (huPPARα) [%] | change in vivo at 30 mg/kg (Hu apoAI transgenic mice) [%] | inhibition in vivo at 30 mg/kg (Hu apoAI transgenic mice) [%] |
| --- | --- | --- | --- | --- |
| 457 | Cc1oc(-c2ccc(-c3c(F)cccc3F)cc2)nc1CCOc1ccc(OC(C)(C)C(=O)O)cc1 [Example 14, 2-(4-{2-[2-(2′,6′-Difluorobiphenyl-4-yl)-5-methyloxazol-4-yl]-ethoxy}-phenoxy)-2-methylpropionic acid] | 90 | 66 | 67.5 |
| 532 | Cc1oc(-c2ccc(-c3ccccc3)cc2)nc1CCOc1cccc(OC(C)(C)C(=O)O)c1 [Example 21, 2-{3-[2-(2-Biphenyl-4-yl-5-methyloxazol-4-yl)ethoxy]phenoxy}-2-methylpropionic acid] | 92 | 204 | 60.5 |
| 268 | Cc1sc(-c2cccc(-c3ccccc3)c2)nc1CCOc1ccc(OC(C)(C)C(=O)O)cc1 [Example 46, 2-{4-[2-(2-Biphenyl-3-yl-5-methyl-thiazol-4-yl)-ethoxy]-phenoxy}-2-methyl-propionic acid] | 122 | 26 | 16.4 |
